Results from US11284615B2, “Cryopreservation using sucralose” (East Carolina University, priority 2015, dated 2022).

Tests used:
[1] = Differential scanning calorimetry of unilamellar DPPC vesicles with added sugar; type: physicochemical; conditions: for cooperativity of the transition (peak width at half peak height, PWHH) / enthalpy of main phase transition / main phase transition temperature of DPPC liposomes: increasing mole ratio of sugar to lipid; for main phase transition temperature of DPPC liposomes: DSC 30-60 °C at 2 °C/min, DPPC alone ~42 °C
Method: Methods: Unilamellar vesicles were prepared by extrusion. Sucrose or sucralose was added to the vesicles to achieve the desired mole ratio after vesicle formation. Differential scanning calorimetry was used to examine the main phase behavior of the liposome bilayer. Thermograms were obtained in the heating and cooling directions between 30° C. and 60° C. at a rate of 2° C./min.

[2] = tested on: red blood cells; assay: Percent hemolysis of red blood cells on addition of sucralose (no freezing); type: cell-based, sheep; conditions: measured against PBS buffer and triton X
Method: (§1) Experiments that measure the percent hemolysis of red blood cells before and after treatment were carried out using sheep blood.
(§2) We measured absorption at three wavelengths (450 nm, 500 nm and 525 nm, shown in FIGS. 10, 11 and 12, respectively). […] That is why the error bars are smallest for those.

[3] = tested on: red blood cells; assay: Percent hemolysis of red blood cells frozen with sucralose and thawed; type: cell-based, sheep; conditions: for protective effect compared with 20% glycerol solution: equivalent volume of 20% v/v glycerol, blood frozen for 48 hours; for protection during freezing (hemolysis): measured against triton X and PBS
Method: as §1
This is data from blood frozen for 48 hours.
as §2

[4] = tested on: mouse myoblasts; assay: Cytotoxicity of sucralose on nucleated cells; type: cell-based
Text: Protection against hemolysis of red blood cells in the presence of increasing amounts of sucralose was examined at 3.5×(˜0.7 billion cells/ml) and 7×(˜1.4 billion cells/ml) the original red blood cell count, and are shown in FIGS. 15A and 15B, respectively. […] In addition, studies on the cytotoxicity of sucralose on nucleated cells, mouse myoblasts, indicate that sucralose concentrations in excess of about 2.5% w/v may have toxic effects.

Structure (SMILES)	shoulders in thermograms (indicative of phase separation) ([1]; cooling cycle)	shoulders in thermograms (indicative of phase separation) ([1]; heating cycle)	cooperativity of the transition (peak width at half peak height, PWHH) [1]	enthalpy of main phase transition [1]	main phase transition temperature of DPPC liposomes [1]	induction of hemolysis on addition [2]	protective effect compared with 20% glycerol solution [3]	protective effect compared with 20% glycerol solution ([3]; listed as sugar)	protection during freezing (hemolysis) ([3]; frozen and thawed)	protection during freezing (hemolysis) ([3]; frozen and thawed, listed as sugar)	sucralose concentration resulting in decreased efficacy in protecting red blood cells from hemolysis ([3]; frozen and thawed, ~0.7 and ~1.4 billion cells/ml)	amount of sucralose required for cryopreservation of red blood cells ([3]; red blood cell count about 0.2 to 1.4 billion cells/ml)	sucralose concentration that may have toxic effects [4]
OC[C@H]1O[C@@](CO)(O[C@H]2O[C@H](CO)[C@@H](O)[C@H](O)[C@H]2O)[C@@H](O)[C@@H]1O [sucrose]	shoulders are again observed	shoulders appear	decrease in cooperativity	remains relatively stable	little change	–	–	–	–	–	–	–	–
OC[C@H]1O[C@H](O[C@]2(CCl)O[C@H](CCl)[C@@H](O)[C@@H]2O)[C@H](O)[C@@H](O)[C@H]1Cl [sucralose, 1,6-Dichloro-1,6-dideoxy-β-D-fructofuranosyl-4-chloro-4-deoxy-α-D-galactopyranoside]	not seen	a shoulder is seen in some thermograms	drastic decrease in cooperativity	remained essentially unchanged	decreased significantly	does not induce hemolysis	better than using an equivalent volume of a 20% glycerol solution	performs better than a 20% v/v solution of glycerol	substantially reduces hemolysis	protective effect	above 2.5 % w/v	increases with an increase of red blood cell concentration	above 2.5 % w/v
